Earlier results in US7217681B2, “Pesticidal composition and method for fungal control” (Syngenta Crop Protection, Inc., priority 2004, dated 2007).

Test system: fungi
Conditions: reported by Burg et al., Ivermectin and Abamectin, 1989

abamectin
anti-bacterial or antifungal activity: no anti-bacterial or antifungal activity
